Experimental findings from patent EP1119538B1, “DERIVATIVES OF PHENANTRENE FOR MEDICINAL USE AND A PROCESS FOR THEIR PREPARATION” (Ammar, Khodor, priority 1998, dated 2000) are described below.

The subject of this experiment is intestinal adenocarcinoma cells (lineage CACO-2). Nature of the experiment: Proliferation inhibition in intestinal adenocarcinoma cells, lineage CACO-2. The format is cell-based. The settings on record: cell lineage CACO-2. The procedure:
Further research has recently been carried out using retinoic acid, sodium butyrate and the invention substances obtained as in Example 1. More specifically, tests were conducted on intestinal adenocarcinoma cells (lineages CACO-2 and HT-29) using isomers of molecular weight 256 - hereinafter referred to simply as "esters 256" - and using the compound of molecular weight 330 corresponding to formula IV, and mixtures mainly containing said compound - hereinafter referred to simply as "HHP" (hydroxy-hydro-phenanthrene). The results were as follows: • 1. The proliferation-inhibiting effect of HHP and butyrate on cell lineage CACO-2 is 80% as compared with 60% for retinoic acid. Inhibition in cell lineage HT-29 treated with HHP of 50µM concentration was 95% by the seventh day. • 2. […] HHP induces in the cell lineages a 3.5 times increase in the number of domes, indicating greater cell differentiation. • 6. […] In CACO-2, alpha 2,6, xyalyl transferase increases 3 times with respect to the control after two weeks' treatment with HHP.

`CCCC(=O)[O-].[Na+]` [butyrate, sodium butyrate, reference compound] returned a proliferation-inhibiting effect of 80%.
For `CC1=C(/C=C/C(C)=C/C=C/C(C)=C/C(=O)O)C(C)(C)CCC1` [retinoic acid, reference compound], the proliferation-inhibiting effect is 60%.
